# Measured values published in patent publication US20150285812A1, “Fluorescence-Labelled Fatty Acids and Uses Thereof” (SANOFI, priority 2012, published 2015).
# “Also recorded” adds a separate entry of the source.
# Legend:
# [1] = log D7.4 determination by RP-HPLC, similar to the water/octanol partition coefficient method; type: physicochemical; details: pH 7.4, RP-HPLC C18, range −1 to +6
# Protocol: log D7.4 values were determined by a method similar to the partition coefficient method in a water/octanol mixture and were carried out on an RP-HPLC from Waters Alliance (2795) having a C18 column (2×20 mm) with a gradient of morpholinesulfonic acid buffer (pH 7.4) and acetonitrile. The range was between −1 ([…]) to +6 (lipophilic).
# HSA [2] = biological target: T1, HSA (Homo sapiens, UniProt P02768); assay: Fluorescence of NBD and dansyl dyes with increasing HSA (FRET effect, emission maxima); type: binding
# T1 construct: purchased Sigma Aldrich A1887
# Protocol: Absorption and fluorescence of fluorescence-labelled derivatives and HSA were carried out in a Varioskan™ microplate reader (Thermo Electron Corporation). 96 well (Costar, half area, flat bottom) microplates were used for absorption measurements and 384 well (Greiner Bio One, small volume, black) microplates from Greiner Bio One were used for fluorescence measurements. All measurements were carried out at pH 7.4 and room temperature.
# 5.00 ml of a 400 μM solution were prepared from the HSA stock solution. From this solution a geometric dilution series with 7 dilution steps, a dilution factor of 0.5 and a final volume of each concentration of 2.5 ml were prepared.
# Defined concentrations of the fluorescence-labelled compounds were selected from the preceding experiment without HSA above and double-concentrated solutions thereof were prepared to take into account the later 1:1 dilution. For each fluorescence-labelled compound (12-17; 19-25) 1.00 ml of these double-concentrations was prepared. 50 μl of the dye solutions were introduced into a 96 well microplate and 50 μl each of the HSA dilution series were added. By mixing the solutions the concentrations of dye derivatives and the HSA solution were halved. The measurements of the absorption and fluorescence were carried out in analogy to the above experimental procedure without HSA.
# In analogy to the absorption measurement the effect of HSA on the fluorescence of the dyes (12-17; 19-25) was determined. The same concentrations of NBD and dansyl dyes and the same concentration range for HSA as already described above were used.
# HSA [3] = biological target: T1, HSA; assay: Displacement of NBD derivatives on HSA by natural fatty acids C6 to C16 (fluorescence); type: binding; details: ranking among NBD C8, C10 and C12 from the competition experiments
# Protocol: Dilution series for competition experiments with the fatty acids C6 to C16 were diluted with phosphate-buffered saline solution (DPBS buffer). Geometric dilution series of each fatty acid were prepared in 384 well microplates with a starting concentration of 2500 μM and a dilution factor of 0.33 and also 9 dilution steps. The final volume of each concentration was 80 μl. The plated-out fatty acids were stored in the deep freeze (−25° C.) until use.
# For displacement experiments 2.50 ml of a 25 μM HSA solution were used per dye derivative. Due to the subsequent dilution steps the HSA concentration was doubled twice such that 2.50 ml of […] solution were prepared.
# The dye concentrations were also doubled twice by the following dilution steps. 2.50 ml of each dye solution were needed. 2.10 ml of the respective dye solution were then mixed with 2.10 ml of the 100 μM HSA solution. The respective concentrations of the solutions halve here once. 50 μl of the mixture per well were introduced into a 96 well microplate.
# The fatty acid microplates were brought to room temperature and 50 μl each of the dilution series were pipetted into the HSA-dye mixture. The concentrations of all solution constituents were thereby halved once again. In analogy to the experiments measuring the fluorescence of the fluorescence-labelled derivatives without HSA above, the solutions were pipetted from the 96 well microplate into a 384 well microplate. Absorption was not measured. The fluorescence measurement without a wavelength scan was carried out in analogy to the above-referenced experiment.
# A concentration of 25 μM and a binding ratio of the NBD derivatives to HSA of 1:1 were employed for the displacement studies. For each dye derivative an NBD-HSA mixture with a concentration of 25 μM was prepared.
# HSA [4] = biological target: T1, HSA; assay: Competition of NBD C12 (17) on HSA with ibuprofen and warfarin; type: binding; details: from competition with warfarin and ibuprofen
# Protocol: In analogy to the experiments measuring the fluorescence of the fluorescence-labelled derivatives without HSA above, the solutions were pipetted from the 96 well microplate into a 384 well microplate. […] The fluorescence measurement without a wavelength scan was carried out in analogy to the above-referenced experiment.
# amino acid Trp214 of HSA = biological target: T2, amino acid Trp214 of HSA (Homo sapiens, UniProt P02768); assay: FRET interactions of NBD C12 (17) with Trp214 of HSA; type: binding; details: for tryptophan emission intensity of HSA after addition of the dye: emission 330 nm, without dye 170/171 FI
# T2 construct: purchased Sigma Aldrich A1887
# Protocol: For determining FRET (Förster resonance energy transfer) interactions of NBD C12 (17) with amino acid Trp214 of HSA, concentrations of a dye-HSA mixture according to Table 8 were applied in an amount of 250 μl for each case.
# 100 μl of mixture 7 were pipetted into a 96 well microplate and a wavelength scan for the absorption in the range from 250 nm to 700 nm was carried out. In each case 15 μl of the residual solutions 1 to 6 were pipetted four times into a black 384 well microplate and emission spectra of the solution in the range from 270 nm to 700 nm were recorded at 290 nm excitation wavelength of the Trp.
# For dye NBD C12 (17) the FRET effect between the tryptophan of the HSA and the dye itself was investigated more precisely. The emission spectrum of the amino acid tryptophan overlapped with the absorption spectrum of the NBD dye, because the energy of the donor to be transferred must lie in the region of the possible energy absorption of the acceptor. This is the case when the two spectra overlap. For measurement, both solutions were employed in identical concentrations (25 μM) and the units of the fluorescence intensities (FIrel) and the absorption strength (ODrel) were standardized. An excitation wavelength of 290 nm was utilized for the emission spectrum of tryptophan.
# In the next step, different concentrations of NBD C12 (17) were added to the HSA solution until a ratio of NBD to HSA of 1:1 was reached, and the emission spectra were measured.
# The efficiency of the energy transfer occurring was calculated using the equation 3.4.
# The distance R0, at which a 50% energy exchange takes place, was calculated according to the following equation. Furthermore, by transformation of said equation the real distance r of donor and acceptor was determined.
# The fluorescence quantum yield for tryptophan is 0.15.
# [5] = HSA 25 μM, NBD to HSA up to 1:1, excitation 290 nm
# T2 sequence (P02768 25-609): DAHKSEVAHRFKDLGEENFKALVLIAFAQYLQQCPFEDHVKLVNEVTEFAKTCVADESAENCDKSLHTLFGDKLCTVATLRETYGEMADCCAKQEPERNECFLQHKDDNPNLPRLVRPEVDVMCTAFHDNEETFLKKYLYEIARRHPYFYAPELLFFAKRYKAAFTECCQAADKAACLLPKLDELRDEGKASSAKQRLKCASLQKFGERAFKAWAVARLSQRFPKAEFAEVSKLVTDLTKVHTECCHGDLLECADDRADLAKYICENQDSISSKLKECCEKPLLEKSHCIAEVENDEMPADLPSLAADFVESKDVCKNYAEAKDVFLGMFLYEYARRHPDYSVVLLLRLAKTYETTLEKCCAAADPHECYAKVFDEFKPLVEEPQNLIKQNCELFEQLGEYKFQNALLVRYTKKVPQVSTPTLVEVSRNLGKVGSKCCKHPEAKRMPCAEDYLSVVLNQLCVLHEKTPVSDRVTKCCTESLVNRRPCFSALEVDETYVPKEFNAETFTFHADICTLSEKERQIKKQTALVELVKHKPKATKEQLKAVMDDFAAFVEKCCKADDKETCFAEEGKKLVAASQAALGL
# T1 sequence (P02768 25-609): as above
compound,measurement,setting,value
"O=C(O)CCCCCCCCCCCNc1ccc([N+](=O)[O-])c2nonc12 [NBD C12 (17), 12-(7-Nitrobenzo[1,2,5]oxadiazol-4-ylamino)dodecanoic acid]",chromatographic logD,[1],2.84
same,log D7.4,[1],2.84
same,"Δλ, shift of emission maximum λem without HSA vs with HSA","HSA [2]; NBD compound 25 μM, λex = 480 nm",16 nm
same,change in fluorescence intensity with increasing HSA concentration,"HSA [2]; NBD derivatives 25 μM, HSA 1.56 to 200 μM, 480-550 nm, pH 7.4",increase in fluorescence intensity
same,relative binding affinity of the NBD dye for HSA,HSA [3],greatest binding affinity; also recorded: bounds best
same,binding site on HSA,HSA [4],neither bound the Sudlow's site I nor the Sudlow's site II
same,fluorescence of the dye on excitation of tryptophan,amino acid Trp214 of HSA; [5],15 FI
same,tryptophan emission intensity of HSA after addition of the dye,amino acid Trp214 of HSA; [5],82 FI
same,tryptophan emission intensity of HSA after addition of the dye,"amino acid Trp214 of HSA; HSA 25 μM, NBD to HSA up to 1:1, excitation 290 nm, listed as NBD dye C12 (17)",80 FI
same,efficiency of the energy transfer,amino acid Trp214 of HSA; calculated from I 82 FI and I0 171 FI,approximately 52%
